Assay results: patent US9359308B2, “Pyrazine kinase inhibitors” (Portola Pharmaceuticals, Inc., priority 2011, dated 2016)

Molecular target: T1, full length active recombinant SYK enzyme (Homo sapiens, UniProt P43405)
T1 construct: full length active recombinant SYK enzyme (Millipore, Calif.); purchased Millipore
Test: Inhibition of Syk tyrosine phosphorylation activity (LANCE TR-FRET kinase assay)
Type: biochemical
Details: activity in the Syk assays, class symbols
How it was run: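 1 nM full-length active recombinant SYK phosphorylated 550 nM biotin-DEEDYESP-OH with 100 μM ATP in 50 mM Tris pH 7.5, 5 mM MgCl2, 1 mM DTT and 3% DMSO for 1 h at room temperature. After EDTA quench, Eu-anti-phosphotyrosine/SA-APC TR-FRET was read after 1 h. IC50s came from non-linear regression.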

| Compound | IC50 [nM] |
| --- | --- |
| NC(=O)c1ncc(N[C@H](CC2CC2)C(N)=O)nc1Nc1cnc2ccccc2c1 [Example 7, (R)-5-(1-amino-3-cyclopropyl-1-oxopropan-2-ylamino)-3-(quinolin-3-ylamino)pyrazine-2-carboxamide] | 1 to 10 |
| CC[C@@H](Nc1cnc(C(N)=O)c(Nc2cncc3ccccc23)n1)C(N)=O [Example 367, (R)-5-(1-amino-1-oxobutan-2-ylamino)-3-(isoquinolin-4-ylamino)pyrazine-2-carboxamide] | 1 to 10 |
| CC[C@@H](Nc1cnc(C(N)=O)c(Nc2cc(C(=O)N(C)C)ns2)n1)C(N)=O [Example 249, (R)-5-(6-(1-amino-1-oxobutan-2-ylamino)-3-carbamoylpyrazin-2-ylamino)-N,N-dimethylisothiazole-3-carboxamide] | 100 to 1000 |
| CC(C)[C@@H](Nc1cnc(C(N)=O)c(Nc2cccc(-n3nccn3)c2)n1)C(N)=O [Example 65, (R)-3-(3-(2H-1,2,3-triazol-2-yl)phenylamino)-5-(1-amino-3-methyl-1-oxobutan-2-ylamino)pyrazine-2-carboxamide] | 10 to 100 |
| CS(=O)(=O)c1cccc(Nc2nc(N[C@@H]3CCCC[C@@H]3N)cnc2C(N)=O)c1 [Example 154, 5-((1R,2S)-2-aminocyclohexylamino)-3-(3-(methylsulfonyl)phenylamino)pyrazine-2-carboxamide] | 10 to 100 |
| CN(C)C(=O)c1ccc(Nc2nc(N[C@@H]3CCCC[C@@H]3N)cnc2C(N)=O)cc1Cl [Example 279, 5-((1R,2S)-2-aminocyclohexylamino)-3-(3-chloro-4-(dimethylcarbamoyl)phenylamino)pyrazine-2-carboxamide] | 10 to 100 |
| CC[C@@H](Nc1cnc(C(N)=O)c(Nc2cnn3ccccc23)n1)C(N)=O [Example 421, (R)-5-((1-amino-1-oxobutan-2-yl)amino)-3-(pyrazolo[1,5-a]pyridin-3-ylamino)pyrazine-2-carboxamide] | 1 to 10 |
| CC(C)C[C@@H](Nc1cnc(C(N)=O)c(Nc2ccn(C)n2)n1)C(N)=O [Example 180, (R)-5-(1-amino-4-methyl-1-oxopentan-2-ylamino)-3-(1-methyl-1H-pyrazol-3-ylamino)pyrazine-2-carboxamide] | > 1000 |
| CC[C@@H](Nc1cnc(C(N)=O)c(Nc2snc(C)c2I)n1)C(N)=O [Example 133, (R)-5-((1-amino-1-oxobutan-2-yl)amino)-3-((4-iodo-3-methylisothiazol-5-yl)amino)pyrazine-2-carboxamide] | 10 to 100 |
| COc1cc(Nc2nc(N[C@@H](C(N)=O)C(C)C)cnc2C(N)=O)ccn1 [Example 315, (R)-5-(1-amino-3-methyl-1-oxobutan-2-ylamino)-3-(2-methoxypyridin-4-ylamino)pyrazine-2-carboxamide] | 10 to 100 |
| CC(=O)N1CCN(c2ccc(Nc3nc(NC4CC4)cnc3C(N)=O)cc2)CC1 [Example 59, 3-(4-(4-acetylpiperazin-1-yl)phenylamino)-5-(cyclopropylamino)pyrazine-2-carboxamide] | 100 to 1000 |
| CC[C@@H](Nc1cnc(C(N)=O)c(Nc2cccc3cnccc23)n1)C(N)=O [Example 378, (R)-5-(1-amino-1-oxobutan-2-ylamino)-3-(isoquinolin-5-ylamino)pyrazine-2-carboxamide] | 10 to 100 |
| Cc1cc(Nc2nc(NC3(C(N)=O)CCCCC3)cnc2C(N)=O)sn1 [Example 401, 5-(1-carbamoylcyclohexylamino)-3-(3-methylisothiazol-5-ylamino)pyrazine-2-carboxamide] | 10 to 100 |
| NC(=O)c1ncc(N[C@@H]2CCNC2)nc1Nc1cnn2ccccc12 [Example 107, (R)-3-(pyrazolo[1,5-a]pyridin-3-ylamino)-5-(pyrrolidin-3-ylamino)pyrazine-2-carboxamide] | 10 to 100 |
| CC[C@@H](Nc1cnc(C(N)=O)c(Nc2ccc3ccncc3c2)n1)C(N)=O [Example 379, (R)-5-(1-amino-1-oxobutan-2-ylamino)-3-(isoquinolin-7-ylamino)pyrazine-2-carboxamide] | 1 to 10 |
| CN(CC(F)(F)F)C(=O)c1ccc(Nc2nc(N[C@@H]3CCCC[C@@H]3N)cnc2C(N)=O)cc1 [Example 298, 5-((1R,2S)-2-aminocyclohexylamino)-3-(4-(methyl(2,2,2-trifluoroethyl)carbamoyl)phenylamino)pyrazine-2-carboxamide] | 10 to 100 |
| NC(=O)c1ncc(N[C@@H]2CCCC(F)(F)[C@@H]2N)nc1Nc1cnc2ccccc2c1 [Example 102, 5-((1R,2R)-2-amino-3,3-difluorocyclohexylamino)-3-(quinolin-3-ylamino)pyrazine-2-carboxamide] | 10 to 100 |
| NC(=O)c1ncc(NC(CC(F)(F)F)C(N)=O)nc1Nc1ccc2ncccc2c1 (stereo not drawn) [Example 6, 5-(1-amino-4,4,4-trifluoro-1-oxobutan-2-ylamino)-3-(quinolin-6-ylamino)pyrazine-2-carboxamide] | 1 to 10 |

| Compound | IC50 [nM] |
| --- | --- |
| NC(=O)c1ncc(N[C@@H]2CCCC(F)(F)[C@@H]2N)nc1Nc1cccnc1 [Example 371, 5-((1R,2R)-2-amino-3,3-difluorocyclohexylamino)-3-(pyridin-3-ylamino)pyrazine-2-carboxamide] | 10 to 100 |
| Cc1cc(Nc2nc(NC3(C(N)=O)CC3)cnc2C(N)=O)sn1 [Example 220, 5-(1-carbamoylcyclopropylamino)-3-(3-methylisothiazol-5-ylamino)pyrazine-2-carboxamide] | 1 to 10 |
| NC(=O)c1ncc(N[C@@H]2CCCC(F)(F)[C@@H]2N)nc1Nc1ccc2c(c1)CCC2 [Example 454, 5-(((1R,2R)-2-amino-3,3-difluorocyclohexyl)amino)-3-((2,3-dihydro-1H-inden-5-yl)amino)pyrazine-2-carboxamide] | 10 to 100 |
| CCc1cc(Nc2nc(N[C@H](CC)C(N)=O)cnc2C(N)=O)sn1 [Example 221, (R)-5-(1-amino-1-oxobutan-2-ylamino)-3-(3-ethylisothiazol-5-ylamino)pyrazine-2-carboxamide] | 1 to 10 |
| Cc1nsc(Nc2nc(N[C@@H]3CCCC[C@@H]3N)cnc2C(N)=O)c1-c1ccccc1 [Example 120, 5-(((1R,2S)-2-aminocyclohexyl)amino)-3-((3-methyl-4-phenylisothiazol-5-yl)amino)pyrazine-2-carboxamide] | 10 to 100 |
| NC(=O)c1ncc(N[C@@H]2CCCC[C@@H]2N)nc1Nc1cnc2ccncc2c1 [Example 433, 3-((1,6-naphthyridin-3-yl)amino)-5-(((1R,2S)-2-aminocyclohexyl)amino)pyrazine-2-carboxamide] | 1 to 10 |
| CC(C)(C)[C@@H](Nc1cnc(C(N)=O)c(Nc2ccc3ncccc3c2)n1)C(N)=O [Example 192, (R)-5-(1-amino-3,3-dimethyl-1-oxobutan-2-ylamino)-3-(quinolin-6-ylamino)pyrazine-2-carboxamide] | 1 to 10 |
| CS(=O)(=O)Cc1ccc(Nc2nc(N[C@@H]3CCCC[C@@H]3N)cnc2C(N)=O)cc1 [Example 145, 5-((1R,2S)-2-aminocyclohexylamino)-3-(4-(methylsulfonylmethyl)phenylamino)pyrazine-2-carboxamide] | 10 to 100 |
| CC(C)C[C@@H](Nc1cnc(C(N)=O)c(Nc2ccc(C(F)(F)F)nc2)n1)C(N)=O [Example 85, (R)-5-(1-amino-4-methyl-1-oxopentan-2-ylamino)-3-(6-(trifluoromethyl)pyridin-3-ylamino)pyrazine-2-carboxamide] | 10 to 100 |
| CCc1ccc(Nc2nc(N[C@H](CC(C)C)C(N)=O)cnc2C(N)=O)cn1 [Example 347, (R)-5-(1-amino-4-methyl-1-oxopentan-2-ylamino)-3-(6-ethylpyridin-3-ylamino)pyrazine-2-carboxamide] | 1 to 10 |
| Cc1ccc(Nc2nc(N[C@@H]3CCNC3)cnc2C(N)=O)cc1 [Example 112, (R)-5-(pyrrolidin-3-ylamino)-3-(p-tolylamino)pyrazine-2-carboxamide] | 10 to 100 |
| CC(C)C[C@@H](Nc1cnc(C(N)=O)c(Nc2ccc(C(=O)N3CCC3)cc2)n1)C(N)=O [Example 293, (R)-5-(1-amino-4-methyl-1-oxopentan-2-ylamino)-3-(4-(azetidine-1-carbonyl)phenylamino)pyrazine-2-carboxamide] | 1 to 10 |
| NC(=O)c1ncc(N[C@@H]2CCCC(F)(F)[C@@H]2N)nc1Nc1ccc2nc(N3CCC3)oc2c1 [Example 337, 5-((1R,2R)-2-amino-3,3-difluorocyclohexylamino)-3-(2-(azetidin-1-yl)benzo[d]oxazol-6-ylamino)pyrazine-2-carboxamide] | 10 to 100 |
| CN(C)c1nc2ccc(Nc3nc(N[C@@H]4CCCC(F)(F)[C@@H]4N)cnc3C(N)=O)cc2o1 [Example 336, 5-((1R,2R)-2-amino-3,3-difluorocyclohexylamino)-3-(2-(dimethylamino)benzo[d]oxazol-6-ylamino)pyrazine-2-carboxamide] | 1 to 10 |
| CC(C)(C)[C@@H](Nc1cnc(C(N)=O)c(Nc2cnc3cccnc3c2)n1)C(N)=O [Example 237, (R)-3-(1,5-naphthyridin-3-ylamino)-5-(1-amino-3,3-dimethyl-1-oxobutan-2-ylamino)pyrazine-2-carboxamide] | 10 to 100 |
| CC[C@@H](Nc1cnc(C(N)=O)c(Nc2ccc(C(=O)N3CC(C#N)C3)nc2)n1)C(N)=O [Example 329, (R)-5-(1-amino-1-oxobutan-2-ylamino)-3-(6-(3-cyanoazetidine-1-carbonyl)pyridin-3-ylamino)pyrazine-2-carboxamide] | 1 to 10 |
| NC(=O)c1ncc(N[C@@H]2CCCC(F)(F)[C@@H]2N)nc1Nc1cnn2ccccc12 [Example 447, 5-(((1R,2R)-2-amino-3,3-difluorocyclohexyl)amino)-3-(pyrazolo[1,5-a]pyridin-3-ylamino)pyrazine-2-carboxamide] | 1 to 10 |
| CC[C@@H](Nc1cnc(C(N)=O)c(Nc2ccc(N(C)C(C)=O)cc2)n1)C(N)=O [Example 161, (R)-5-(1-amino-1-oxobutan-2-ylamino)-3-(4-(N-methylacetamido)phenylamino)pyrazine-2-carboxamide] | 100 to 1000 |
